Source: patent EP4603105A1, “PHARMACEUTICAL COMPOSITION CONTAINING CYCLIC COMPOUND HAVING SELECTIVE KRAS INHIBITORY EFFECT AGAINST HRAS AND NRAS” (CHUGAI SEIYAKU KABUSHIKI KAISHA, priority 2022, dated 2024)
Like-named read-outs stand apart in the source and are kept apart here.

Columns and labels:
HRAS wild-type protein = HRAS wild-type protein (Homo sapiens, UniProt P01112); test: Binding to HRAS by surface plasmon resonance (SPR), KD and KD ratio to KRAS
In short: (§1)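 GDP-loaded biotinylated Avi-tag RAS proteins (E. coli-expressed) captured on a Biotin CAPture chip at ~100–300 RU; single-cycle kinetics at 30°C, 100 µL/min, 75 s injections of rising compound concentrations. HBS pH 7.4 running buffer with 1 mM DTT, 10 mM MgCl2, 10 µM GDP, 4% DMSO. KD from 1:1 binding fit.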

[1] = test system: human lung cancer strain NCI-H441; test: NCI-H441 cell proliferation inhibitory activity (CellTiter-Glo, 4 days); format: cell-based; conditions: read-out: NCl-H441 IC50
In short: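 Readout: […] after the ATP-based reagent. Compound: serial dilutions in dimethyl sulfoxide.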

[2] = target: GDP-bound KRAS wild-type protein (Homo sapiens, UniProt P01116); test: Binding to KRAS by surface plasmon resonance (SPR), dissociation constant KD
GDP-bound KRAS wild-type protein, sequence (P01116 1-188 isoform P01116-2): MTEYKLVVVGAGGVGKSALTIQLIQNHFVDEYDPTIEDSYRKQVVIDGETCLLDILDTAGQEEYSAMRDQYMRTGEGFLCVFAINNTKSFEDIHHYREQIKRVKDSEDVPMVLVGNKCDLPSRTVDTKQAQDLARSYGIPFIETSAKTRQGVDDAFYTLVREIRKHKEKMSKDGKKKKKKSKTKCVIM
In short: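 Captured GDP-RAS (~100–300 RU) was exposed to increasing compound concentrations, 75 s per step, in running buffer with 10 µM GDP, 10 mM MgCl2 and 4% DMSO at pH 7.4.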

[3] = target: GDP-bound NRAS wild-type protein (Homo sapiens, UniProt P01111); test: Binding to NRAS by surface plasmon resonance (SPR), KD and KD ratio to KRAS
GDP-bound NRAS wild-type protein, sequence (P01111 whole entry): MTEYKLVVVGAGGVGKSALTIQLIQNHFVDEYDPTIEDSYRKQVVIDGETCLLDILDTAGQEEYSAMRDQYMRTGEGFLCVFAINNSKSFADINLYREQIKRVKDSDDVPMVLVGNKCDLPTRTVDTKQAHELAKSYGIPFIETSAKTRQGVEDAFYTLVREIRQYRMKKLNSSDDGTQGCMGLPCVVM
In short: as §1

[4] = ratio of KD with respect to HRAS wild-type protein to KD with respect to KRAS
[5] = 50% proliferation inhibitory concentration, four days
[6] = Single Cycle Kinetics, 1:1 binding model
[7] = ratio of KD with respect to GDP-bound NRAS wild-type protein to KD with respect to KRAS
[8] = ratio of KD for HRAS wild-type protein to KD for KRAS
[9] = ratio of KD for GDP-bound NRAS wild-type protein to KD for KRAS

HRAS wild-type protein, sequence (P01112 whole entry): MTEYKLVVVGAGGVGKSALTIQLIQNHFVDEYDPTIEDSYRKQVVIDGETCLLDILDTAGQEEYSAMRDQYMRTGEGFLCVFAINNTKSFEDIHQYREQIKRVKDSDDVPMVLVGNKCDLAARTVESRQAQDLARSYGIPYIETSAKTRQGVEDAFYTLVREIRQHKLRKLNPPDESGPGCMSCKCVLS

Row | IC50 [1, 5] [nM] | Kd [2, 6] [nM] | IC50 ([1]; NCI-H441 cells, 4 days) [nM] | Kd ([2]; 1:1 binding model) [nM] | Kd ([2]; Single Cycle Kinetics) [nM] | SMILES | HRAS /KRAS (HRAS wild-type protein; [4]) | NRAS /KRAS [3, 7] | HRAS /KRAS (HRAS wild-type protein; [8]) | NRAS /KRAS [3, 9]
1 | 20 | 0.06 | – | – | – | CC[C@H](C)[C@@H]1NC(=O)[C@H](CC)N(C)C(=O)C[C@@H](C(=O)N(C)C)N(C)C(=O)[C@H](C2CCCC2)N(C)C(=O)C2(CCC2)NC(=O)[C@@H]2C[C@H](C)CN2C(=O)[C@H](CCc2cc(F)c(C(F)(F)F)c(F)c2)NC(=O)CN(C)C(=O)[C@H](Cc2ccc(C(F)(F)F)cc2)N2CC/C=C\C[C@@H](C2=O)N(C)C(=O)CN(C)C1=O [PP1134] | B (a compound having 3 or more and less than 10 is denoted as B) | A (a compound having 10 or more and less than 20 is denoted as A) | – | –
2 | – | – | 25.1 | – | 0.81 | CCC[C@H]1C(=O)N[C@@H]([C@@H](C)CC)C(=O)N2CCCC[C@H]2C(=O)N(C)[C@H]2C/C=C\CCN(C2=O)[C@@H](Cc2ccc(C)cc2)C(=O)N(C)CC(=O)N[C@@H](CCc2cc(F)c(C(F)(F)F)c(F)c2)C(=O)N2C[C@H](OCC)C[C@H]2C(=O)N(C)C2(CCC2)C(=O)N(C)[C@@H](C2CCCC2)C(=O)N(C)[C@H](C(=O)N(C)C)CC(=O)N1C [PP3274] | – | – | B (a compound having 3 or more and less than 10 is denoted as B) | A (a compound having 10 or more and less than 20 is denoted as A)
3 | – | – | 7.2 | – | 0.38 | CCC[C@H]1C(=O)N[C@@H]([C@@H](C)CC)C(=O)N(C2CC2)CC(=O)N(C)[C@H]2C/C(F)=C\CCN(C2=O)[C@@H](Cc2ccc(C)cc2)C(=O)N(C)CC(=O)N[C@@H](CCc2cc(F)c(C(F)(F)F)c(F)c2)C(=O)N2C[C@H](OCC)C[C@H]2C(=O)N(C)C2(CCC2)C(=O)N(C)[C@@H](C2CCCC2)C(=O)N(C)[C@H](C(=O)N(C)C)CC(=O)N1C [PP3527] | – | – | B (a compound having 3 or more and less than 10 is denoted as B) | B (a compound having 3 or more and less than 10 is denoted as B)
4 | – | – | 5.7 | – | 0.035 | CCC[C@H]1C(=O)N[C@@H]([C@@H](C)CC)C(=O)N(C)CC(=O)N(C)[C@H]2C/C=C\CCN(C2=O)[C@@H](Cc2ccc(C(F)(F)F)cc2)C(=O)N(C)CC(=O)N[C@@H](CCc2cc(F)c(C(F)(F)F)c(F)c2)C(=O)N2CC3(CC3)C[C@H]2C(=O)NC2(CCC2)C(=O)N(C)[C@@H](CC(C)(C)C)C(=O)N(C)[C@H](C(=O)N(C)C)CC(=O)N1C [PP3406] | – | – | B (a compound having 3 or more and less than 10 is denoted as B) | A (a compound having 10 or more and less than 20 is denoted as A)
5 | 297 | 0.43 | – | – | – | CC[C@H](C)[C@@H]1NC(=O)[C@H](CC)N(C)C(=O)C[C@@H](C(=O)N(C)C)N(C)C(=O)[C@H](C2CCCC2)N(C)C(=O)C2(CCC2)NC(=O)[C@@H]2CCN2C(=O)[C@H](CCc2cc(F)c(C(F)(F)F)c(F)c2)NC(=O)CN(C)C(=O)[C@H](Cc2ccc(C(F)(F)F)cc2)N2CC/C=C\C[C@@H](C2=O)N(C)C(=O)CN(C)C1=O [PP1139] | A (a compound having 10 or more and less than 20 is denoted as A) | A (a compound having 10 or more and less than 20 is denoted as A) | – | –
6 | – | – | 3.7 | – | 0.062 | CCC[C@H]1C(=O)N[C@@H]([C@@H](C)CC)C(=O)N(C)CC(=O)N(C)[C@H]2C/C(F)=C\CCN(C2=O)[C@@H](Cc2ccc(C)cc2)C(=O)N(C)CC(=O)N[C@@H](CCc2cc(F)c(C(F)(F)F)c(F)c2)C(=O)N2C[C@H](OCC)C[C@H]2C(=O)N(C)C2(CCC2)C(=O)N(C)[C@@H](C2CCCC2)C(=O)N(C)[C@H](C(=O)N(C)C)CC(=O)N1C [PP3528] | – | – | B (a compound having 3 or more and less than 10 is denoted as B) | B (a compound having 3 or more and less than 10 is denoted as B)
7 | – | – | 19.4 | – | 0.34 | CCCC[C@@H]1NC(=O)C[C@@H](C(=O)N(C)C)N(C)C(=O)[C@H](C2CCCC2)N(C)C(=O)C2(CC(C)(C)C2)NC(=O)[C@@H]2C[C@@H](OCC)CN2C(=O)[C@H](CCc2ccc(C(F)(F)F)c(Cl)c2)NC(=O)CN(C)C(=O)[C@H](Cc2ccc(C(F)(F)F)cc2)N2CC/C=C\C[C@@H](C2=O)N(C)C(=O)CN(C)C(=O)[C@H]([C@@H](C)CC)NC1=O [PP3453] | – | – | A (a compound having 10 or more and less than 20 is denoted as A) | A (a compound having 10 or more and less than 20 is denoted as A)
8 | 11.4 | 0.13 | – | – | – | CCO[C@@H]1C[C@H]2C(=O)NC3(CCC3)C(=O)N(C)[C@@H](C3CCCC3)C(=O)N(C)[C@H](C(=O)N3CCCC3)CC(=O)N(C)[C@@H](CC(F)F)C(=O)N[C@@H]([C@@H](C)CC)C(=O)N(C)CC(=O)N(C)[C@H]3C/C=C\CCN(C3=O)[C@@H](Cc3ccc(C(F)(F)F)cc3)C(=O)N(C)CC(=O)N[C@@H](CCc3cc(F)c(C(F)(F)F)c(F)c3)C(=O)N2C1 [PP1298] | A (a compound having 10 or more and less than 20 is denoted as A) | AA (a compound having 20 or more is denoted as AA) | – | –

Further lines, the compound ahead of its results:

Row | SMILES | IC50 [1, 5] [nM] | Kd [2, 6] [nM] | IC50 ([1]; NCI-H441 cells, 4 days) [nM] | Kd ([2]; 1:1 binding model) [nM] | Kd ([2]; Single Cycle Kinetics) [nM] | HRAS /KRAS (HRAS wild-type protein; [4]) | NRAS /KRAS [3, 7] | HRAS /KRAS (HRAS wild-type protein; [8]) | NRAS /KRAS [3, 9]
9 | CCC[C@H]1C(=O)N[C@@H]([C@@H](C)CC)C(=O)N2CCC[C@H]2C(=O)N(C)[C@H]2C/C=C\CCN(C2=O)[C@@H](Cc2ccc(C)cc2)C(=O)N(C)CC(=O)N[C@@H](CCc2ccc(C(F)(F)F)c(OC)c2)C(=O)N2C[C@@H](C)C[C@H]2C(=O)N(C)C2(CCC2)C(=O)N(C)[C@@H](C2CCCC2)C(=O)N(C)[C@H](C(=O)N(C)C)CC(=O)N1C [PP2368] | – | – | 4.1 | 0.045 | – | – | – | A (a compound having 10 or more and less than 20 is denoted as A) | A (a compound having 10 or more and less than 20 is denoted as A)
10 | CCOC[C@H]1C(=O)N[C@@H]([C@@H](C)CC)C(=O)N2CCC[C@H]2C(=O)N(C)[C@H]2C/C=C\CCN(C2=O)[C@@H](CC2CCCCC2)C(=O)N(C)CC(=O)N[C@@H](CCc2ccc(C(F)(F)F)c(OC)c2)C(=O)N2C[C@@H](C)C[C@H]2C(=O)N(C)C2(CCC2)C(=O)N(C)[C@@H](C2CCCC2)C(=O)N(C)[C@H](C(=O)N(C)C)CC(=O)N1C [PP2375] | – | – | 172 | 1.1 | – | – | – | B (a compound having 3 or more and less than 10 is denoted as B) | A (a compound having 10 or more and less than 20 is denoted as A)
11 | CCOC[C@H]1C(=O)N[C@@H]([C@@H](C)CC)C(=O)N(C)CC(=O)N(C)[C@H]2C/C=C\CCN(C2=O)[C@@H](Cc2ccc(C)cc2)C(=O)N(C)CC(=O)N[C@@H](CCc2ccc(C(F)(F)F)c(Cl)c2)C(=O)N2C[C@@H](C)C[C@H]2C(=O)NC2(CC(C)(C)C2)C(=O)N(C)[C@@H](C2CCCC2)C(=O)N(C)[C@H](C(=O)N(C)CC)CC(=O)N1C [PP2451] | – | – | 8.6 | 0.17 | – | – | – | A (a compound having 10 or more and less than 20 is denoted as A) | A (a compound having 10 or more and less than 20 is denoted as A)
12 | CCCOC[C@H]1C(=O)N[C@@H](C2CCCC2)C(=O)N(CCC)CC(=O)N(C)[C@H]2C/C=C\CCN(C2=O)[C@@H](Cc2ccc(C)cc2)C(=O)N(C)CC(=O)N[C@@H](CCc2ccc(Cl)c(C(F)(F)F)c2)C(=O)N2C[C@H](OC(C)C)C[C@H]2C(=O)N(C)C2(CCC2)C(=O)N(C)[C@@H](C(CC)CC)C(=O)N(C)[C@H](C(=O)N(C)C)CC(=O)N1C [PP3501] | – | – | 102 | – | 1.1 | – | – | A (a compound having 10 or more and less than 20 is denoted as A) | AA (a compound having 20 or more is denoted as AA)
13 | CCOC[C@H]1C(=O)N[C@@H]([C@@H](C)CC)C(=O)N2CCC[C@H]2C(=O)N(C)[C@H]2C/C=C\CCN(C2=O)[C@@H](Cc2ccc(C)cc2)C(=O)N(C)CC(=O)N[C@@H](CCc2cc(F)c(C(F)(F)F)c(F)c2)C(=O)N2C[C@H](OCC)C[C@H]2C(=O)NC2(CC(C)(C)C2)C(=O)N(C)[C@@H](C2CCCC2)C(=O)N(C)[C@H](C(=O)N(C)CC)CC(=O)N1C [PP2428] | – | – | 4.8 | 0.62 | – | – | – | A (a compound having 10 or more and less than 20 is denoted as A) | A (a compound having 10 or more and less than 20 is denoted as A)
14 | CCC(CC)[C@H]1C(=O)N(C)[C@H](C(=O)N(C)C)CC(=O)N(C)[C@@H](CC2CC2)C(=O)N[C@@H]([C@@H](C)CC)C(=O)N(C)CC(=O)N(C)[C@H]2C/C=C\CCN(C2=O)[C@@H](CC2CCC(F)(F)CC2)C(=O)N(C)CC(=O)N[C@@H](CCc2ccc(C(F)(F)F)c(OC)c2)C(=O)N2C[C@@H](C)C[C@H]2C(=O)NC2(CC(C)(C)C2)C(=O)N1C [PP2494] | – | – | 39.6 | 1.8 | – | – | – | A (a compound having 10 or more and less than 20 is denoted as A) | A (a compound having 10 or more and less than 20 is denoted as A)
15 | CCCC[C@H]1C(=O)N[C@@H]([C@@H](C)CC)C(=O)N2CCC[C@H]2C(=O)N(C)[C@H]2C/C=C\CCN(C2=O)[C@@H](Cc2ccc(C(F)(F)F)cc2)C(=O)N(C)CC(=O)N[C@@H](CCc2ccc(C(F)(F)F)c(OC)c2)C(=O)N2C[C@H](OCC)C[C@H]2C(=O)OC2(CCC2)C(=O)N(C)[C@@H](C2CCCC2)C(=O)N(C)[C@H](C(=O)N(C)C)CC(=O)N1C [PP3365] | – | – | 19.4 | – | 0.65 | – | – | A (a compound having 10 or more and less than 20 is denoted as A) | AA (a compound having 20 or more is denoted as AA)
